Values quoted from earlier work, collected in patent publication US20130143829A1, “Topical Combination Formulations of Macrocyclic Lactones with Synthetic Pyrethroids” (priority 2011, published 2013).

Details: in vivo

In the case of eprinomectin, the “Milk to plasma partition ratio” value is given as ~0.2.
